According to patent US11000033B2, “Ketone or oxime compound, and herbicide” (NISSAN CHEMICAL CORPORATION, priority 2014, dated 2021):

Legend:
Format in all cases: in vivo
Amaranthus retroflexus [1] = assay: Test Example 4: herbicidal effect by soil treatment (symbol N); settings: for N (Amaranthus retroflexus) herbicidal effect grade: application herbicide amount 320 g/ha; for N: Amaranthus retroflexus, herbicidal effect grade: 320 g/ha
Procedure, shortened: (§1)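 Seeds were sown in sterilized diluvial soil, covered with about 1.5 cm of soil, and the soil surface was sprayed with a water-diluted emulsion of the compound at a predetermined rate. Plants grew in a greenhouse at 25° C. to 30° C.; effects were scored visually 3 weeks after application.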

Cyperus difformis = assay: Test Example 3: herbicidal effect by foliage application, Wagner pot (symbol E); settings: application herbicide amount 320 g/ha
Procedure, shortened: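 Foliar spray of water-diluted emulsion formulation at a predetermined herbicide amount onto 14-day-old plants in flooded alluvial soil (water depth 0.1–0.5 cm), greenhouse 25–30 °C; rice sown alongside. Scored 3 wk post-application on set criteria.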

rapeseed = assay: Test Example 4: effect on crop by soil treatment (symbol g); settings: for g (rapeseed) effect on crop grade: application herbicide amount 320 g/ha; for g: rapeseed, effect grade on crop: 320 g/ha
Procedure, shortened: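 Plants are raised in a greenhouse (25° C. to 30° C.) from spot-sown seed, which sits under about 1.5 cm of sterilized diluvial soil in a box shared with weed species.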

Monochoria vaginalis [2] = assay: Test Example 1: herbicidal activity, application before weed generation in submerged conditions (symbol C); settings: application herbicide amount 320 g/ha
Procedure, shortened: (§2)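 In a flooded pot test with alluvial soil, the emulsion-formulated compound was diluted with water to a predetermined amount and applied to the floodwater immediately on the sowing day. Pots were held in a greenhouse at 25–30 °C for 3 weeks before each weed was rated.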

Monochoria vaginalis [3] = assay: Test Example 2: herbicidal activity, application during weed generation in submerged conditions (symbol C); settings: Table 23; application herbicide amount 320 g/ha; grade 0-5 by criteria of Test Example 1
Procedure, shortened: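 Paddy pot test, submerged (4 cm water), alluvial soil, mixed sowing; greenhouse 25–30° C. Emulsion formulation diluted to predetermined rate, applied onto floodwater at 1–2 leaf stage. Visual herbicidal rating at 3 wk post-treatment.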

[4] = system: Echinochloa crus-galli var. crus-galli; assay: Test Example 5: herbicidal effect by foliage application, plastic box (symbol H); settings: 320 g/ha, 3 weeks after application
Procedure, shortened: (§3)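 Herbicide, formulated as an emulsion and diluted in water, is sprayed onto the aerial parts of 14-day seedlings. These were grown at 25° C. to 30° C. in sterilized diluvial soil; effects are graded after 3 weeks.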

Avena fatua = assay: Test Example 5: herbicidal effect by foliage application, plastic box (symbol I); settings: 320 g/ha, 3 weeks after application
Procedure, shortened: as §3

[5] = system: Echinochloa oryzacola Vasing.; assay: Test Example 1: herbicidal activity, application before weed generation in submerged conditions (symbol A); settings: application herbicide amount 320 g/ha
Procedure, shortened: as §2

Amaranthus retroflexus [6] = assay: Test Example 5: herbicidal effect by foliage application, plastic box (symbol N); settings: 320 g/ha, 3 weeks after application
Procedure, shortened: as §3

Digitaria ciliaris = assay: Test Example 4: herbicidal effect by soil treatment (symbol F); settings: for F (Digitaria ciliaris) herbicidal effect grade: application herbicide amount 320 g/ha; for F: Digitaria ciliaris, herbicidal effect grade: 320 g/ha
Procedure, shortened: as §1

Alopecurus myosuroides = assay: Test Example 5: herbicidal effect by foliage application, plastic box (symbol J); settings: 320 g/ha, 3 weeks after application
Procedure, shortened: as §3

[7] = system: directly sowed rice plant; assay: Test Example 3: effect on crop by foliage application, Wagner pot (symbol b); settings: application herbicide amount 320 g/ha
Procedure, shortened: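 Greenhouse culture at 25–30 °C of seeded rice, Cyperus difformis, Leptochloa chinensis and Echinochloa crus-galli var. crus-galli, in alluvial soil held under 0.1–0.5 cm of water in a Wagner pot.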

Apera spica-venti = assay: Test Example 4: herbicidal effect by soil treatment (symbol L); settings: for L (Apera spica-venti) herbicidal effect grade: application herbicide amount 320 g/ha; for L: Apera spica-venti, herbicidal effect grade: 320 g/ha
Procedure, shortened: as §1

SMILES	N (Amaranthus retroflexus) herbicidal effect grade (Amaranthus retroflexus [1])	herbicidal effect on E, grade 0-5 (Cyperus difformis)	g (rapeseed) effect on crop grade (rapeseed)	Herbicidal effect grade, C: Monochoria vaginalis (Monochoria vaginalis [2])	Herbicidal effect grade, C: Monochoria vaginalis (Monochoria vaginalis [3])	H: Echinochloa crus-galli var. crus-galli, herbicidal effect grade [4]	I: Avena fatua, herbicidal effect grade (Avena fatua)	Herbicidal effect grade, A: Echinochloa oryzacola Vasing. [5]	N: Amaranthus retroflexus, herbicidal effect grade (Amaranthus retroflexus [6])	F (Digitaria ciliaris) herbicidal effect grade (Digitaria ciliaris)	J: Alopecurus myosuroides, herbicidal effect grade (Alopecurus myosuroides)	effect on crop b (directly sowed rice plant), grade 0-5 [7]	L (Apera spica-venti) herbicidal effect grade (Apera spica-venti)	N: Amaranthus retroflexus, herbicidal effect grade (Amaranthus retroflexus [1])	g: rapeseed, effect grade on crop (rapeseed)	H: Echinochloa crus-galli var. crus-galli, herbicidal effect (criteria 0-5) [4]	I: Avena fatua, herbicidal effect (criteria 0-5) (Avena fatua)	N: Amaranthus retroflexus, herbicidal effect (criteria 0-5) (Amaranthus retroflexus [6])	F: Digitaria ciliaris, herbicidal effect grade (Digitaria ciliaris)	J: Alopecurus myosuroides, herbicidal effect (criteria 0-5) (Alopecurus myosuroides)	other results
CCC(C)C(CC1CC(O)=C(c2c(C)cc(C)cc2C)C1=O)=NOC (centres unmarked) [1-066]	0 (Herbicidal ratio of 5% or lower (almost no effect))	5 (Herbicidal ratio of 90% or more (almost completely withered))	0 (Herbicidal ratio of 5% or lower (almost no effect))	0 (Herbicidal ratio of 5% or lower (almost no effect))	0 (Herbicidal ratio of 5% or lower (almost no effect))	5 (Herbicidal ratio of 90% or more (almost completely withered))	4 (Herbicidal ratio of 70% or higher and lower than 90%)	4 (Herbicidal ratio of 70% or higher and lower than 90%)	0 (Herbicidal ratio of 5% or lower (almost no effect))	4 (Herbicidal ratio of 70% or higher and lower than 90%)	5 (Herbicidal ratio of 90% or more (almost completely withered))	5 (Herbicidal ratio of 90% or more (almost completely withered))	5 (Herbicidal ratio of 90% or more (almost completely withered))	–	–	–	–	–	–	–	–
CON=C(C)CC1CC(OC(=O)COCC(F)(F)F)=C(c2c(C)cc(C)cc2C)C1=O (centres unmarked) [1-092]	–	5 (Herbicidal ratio of 90% or more (almost completely withered))	–	0 (Herbicidal ratio of 5% or lower (almost no effect))	0 (Herbicidal ratio of 5% or lower (almost no effect))	–	–	5 (Herbicidal ratio of 90% or more (almost completely withered))	–	–	–	5 (Herbicidal ratio of 90% or more (almost completely withered))	–	3 (Herbicidal ratio of 40% or higher and lower than 70%)	4 (Herbicidal ratio of 70% or higher and lower than 90%)	5 (Herbicidal ratio of 90% or more (almost completely withered))	2 (Herbicidal ratio of 20% or higher and lower than 40%)	3 (Herbicidal ratio of 40% or higher and lower than 70%)	5 (Herbicidal ratio of 90% or more (almost completely withered))	4 (Herbicidal ratio of 70% or higher and lower than 90%)	L: Apera spica-venti, herbicidal effect grade (Apera spica-venti): 5 (Herbicidal ratio of 90% or more (almost completely withered))
CC(CC1CC(O)=C(c2c(C)cc(C)cc2C)C1=O)=NOCC=CCl (centres unmarked) [1-056]	3 (Herbicidal ratio of 40% or higher and lower than 70%)	5 (Herbicidal ratio of 90% or more (almost completely withered))	4 (Herbicidal ratio of 70% or higher and lower than 90%)	4 (Herbicidal ratio of 70% or higher and lower than 90%)	4 (Herbicidal ratio of 70% or higher and lower than 90%)	5 (Herbicidal ratio of 90% or more (almost completely withered))	5 (Herbicidal ratio of 90% or more (almost completely withered))	5 (Herbicidal ratio of 90% or more (almost completely withered))	2 (Herbicidal ratio of 20% or higher and lower than 40%)	5 (Herbicidal ratio of 90% or more (almost completely withered))	5 (Herbicidal ratio of 90% or more (almost completely withered))	5 (Herbicidal ratio of 90% or more (almost completely withered))	5 (Herbicidal ratio of 90% or more (almost completely withered))	–	–	–	–	–	–	–	–
CON=C(C)CC1CC(OC(=O)COc2ccc(C(C)=O)cc2)=C(c2c(C)cc(C)cc2C)C1=O (centres unmarked) [1-080]	–	5 (Herbicidal ratio of 90% or more (almost completely withered))	–	3 (Herbicidal ratio of 40% or higher and lower than 70%)	2 (Herbicidal ratio of 20% or higher and lower than 40%)	–	–	5 (Herbicidal ratio of 90% or more (almost completely withered))	–	–	–	5 (Herbicidal ratio of 90% or more (almost completely withered))	–	5 (Herbicidal ratio of 90% or more (almost completely withered))	4 (Herbicidal ratio of 70% or higher and lower than 90%)	5 (Herbicidal ratio of 90% or more (almost completely withered))	5 (Herbicidal ratio of 90% or more (almost completely withered))	0 (Herbicidal ratio of 5% or lower (almost no effect))	5 (Herbicidal ratio of 90% or more (almost completely withered))	5 (Herbicidal ratio of 90% or more (almost completely withered))	L: Apera spica-venti, herbicidal effect grade (Apera spica-venti): 5 (Herbicidal ratio of 90% or more (almost completely withered))
CC(CC1CC(O)=C(c2c(C)cc(C)cc2C)C1=O)=NOC(C)(C)C (centres unmarked) [1-053]	0 (Herbicidal ratio of 5% or lower (almost no effect))	4 (Herbicidal ratio of 70% or higher and lower than 90%)	3 (Herbicidal ratio of 40% or higher and lower than 70%)	0 (Herbicidal ratio of 5% or lower (almost no effect))	0 (Herbicidal ratio of 5% or lower (almost no effect))	4 (Herbicidal ratio of 70% or higher and lower than 90%)	2 (Herbicidal ratio of 20% or higher and lower than 40%)	5 (Herbicidal ratio of 90% or more (almost completely withered))	0 (Herbicidal ratio of 5% or lower (almost no effect))	5 (Herbicidal ratio of 90% or more (almost completely withered))	4 (Herbicidal ratio of 70% or higher and lower than 90%)	5 (Herbicidal ratio of 90% or more (almost completely withered))	3 (Herbicidal ratio of 40% or higher and lower than 70%)	–	–	–	–	–	–	–	–
